Test results reported in US9028856B2, “Synergistic pesticide compositions” (priority 2008, dated 2015).

Key:
[1] = test system: bait averse/resistant German cockroach (IHOP strain), Blattella germanica; assay: Knockdown/mortality of male cockroaches under continuous exposure on treated glazed tile; type: in vivo; conditions: Table 42, aqueous permethrin/adjuvant, IHOP strain
Method: Treatments were allowed to dry overnight. […] Treatments were replicated a minimum of three times. Evaluations for cockroach knockdown/mortality were made at various intervals for 1 hour and at 24 hours after exposure.
Treatments were allowed to dry overnight. […] Evaluations for cockroach knockdown/mortality were made at various intervals and at 60 minutes after exposure.
(§1) Treatments were allowed to dry overnight. […] Treatments were replicated a minimum of three times.

[2] = test system: Odorous House ant, Tapinoma sessile; assay: Knockdown/mortality of ant workers under continuous exposure on treated glazed tile; type: in vivo; conditions: Table 43, aqueous permethrin/adjuvant, glazed tile
Method in brief: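 Treatments applied to about 161 cm2 glazed tile and dried overnight, with at least three replicates.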

[3] = test system: susceptible/normal German cockroach (Monheim strain), Blattella germanica; assay: Knockdown/mortality of male cockroaches under continuous exposure on treated glazed tile; type: in vivo; conditions: Table 45, aqueous permethrin/adjuvant, glazed tile, Monheim strain
Method in brief: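 Male cockroaches continuously exposed on treated glazed tile, dried overnight before exposure; at least three replicates. Knockdown/mortality scored at intervals from 5 or 10 min, over runs lasting 20 min to 24 h depending on test.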

[4] = test system: Red Imported Fire ant (RIFA), Solenopsis invicta; assay: Knockdown/mortality of ant workers under continuous exposure on treated glazed tile; type: in vivo; conditions: Table 44, aqueous permethrin/adjuvant, glazed tile
Excerpt: Treatments were allowed to dry overnight. […] Treatments were replicated minimum three times.
as §1

[5] = test system: Argentine ant, Linepithema humile; assay: as above; conditions: Table 41, aqueous permethrin/adjuvant, glazed tile
Method in brief: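 0.5% AI imidacloprid in acetone, alone or with 0.1, 1.0 or 5.0% additive (benzenepropanoic acid, oleic acid, methyl oleate, methyl linoleate, methyl palmitate or BHA), 1 ml dried overnight on glazed tile (~161 cm^2). Ten workers confined under continuous exposure, water from 3 h; knockdown/mortality scored at intervals and 24 h; ≥3 replicates.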

Aedes aegypti mosquito = assay: USDA Petri Dish Method, 3 min exposure to dipped fiberglass window screen; type: in vivo; conditions: dipped screen, 3 min exposure
Method: MATERIALS AND METHODS: Aqueous solutions of 1% deltamethrin with and without an adjuvant composition, which is sold under the tradename Suspend® SC. […] Pre-cut fiberglass screen (5″×5″, or 161.3 cm^2) were dipped in each treatment solution and excessive solution was allowed to drain completely (see FIG. 23 a). Weight of the solution coated on the screen was then determined. The treated screen was then allowed to air-dry overnight. USDA Petri Dish Method was used as initial screening protocol (see FIG. 23 b). Twenty, 4-6 day old female Aedes aegypti were exposed to treated window screen for 3 minutes and then moved onto a clean untreated white paper index card. Treatments were replicated a minimum of three times. Mosquito knockdown was evaluated at 3 minute intervals for the first 15 minutes and then at 5 minute intervals for the remainder of an hour. A small cotton ball with sucrose solution was added on the screen top of the Petri dish as a drinking source. Mortality was evaluated at 24 hours after exposure.
MATERIALS AND METHODS: Several rates of permethrin without adjuvant were prepared using product sold under the tradename Permanone® 40 to determine an effective rate against Aedes aegypti mosquitoes. After determining an effective rate range, aqueous solutions of permethrin at 1.25, 1.0 and 0.05% AI were prepared with and without adjuvant. […] Pre-cut fiberglass screens (5″×5″ or 161.3 cm^2) were dipped in each treatment solution allowing excessive solution to drain completely. Weight of the solution coated on the screen was then determined. The treated screen was then allowed to air-dry overnight. USDA Petri Dish Method was used as initial screening protocol (see photo, right). Twenty, 4-6 day old female Aedes aegypti were exposed to treated window screen for 3 minutes and then moved to a clean untreated white paper index card. Treatments were replicated a minimum of three times. Mosquito knockdown was evaluated at 3 minute intervals for the first 15 minutes and then at 5 minute intervals for the remainder of an hour. A small cotton ball with sucrose solution was added on the screen top of the petri-dish as a drinking source. Mortality was evaluated at 24 hours after exposure.

[6] = test system: Musca domestica, resistant strain Reichswald; assay: Efficacy of formulations on surfaces (glazed/unglazed tiles), house flies, continuous exposure; type: in vivo; conditions: strain RW resistant, acetone solutions on glazed tiles, mean of three replicates
[7] = test system: Musca domestica, resistant strain Reichswald; assay: as above; type: in vivo; conditions: strain RW resistant, acetone solutions on glazed tiles, mean of three replicates; remark: listed apart in the source
Method: All surfaces were provided with talcum-coated glass rings (diameter 9.5 cm, height 5.5 cm) one day later.
The test insects were anesthetized with CO2, 20 individuals were placed onto the treated surfaces and the glass ring was covered with wire gauze ring. […]
Each test consisted of at least one replicate and any additional replicates are noted.
Test Insects: House flies (Musca domestica) of both sexes, susceptible strain WHO(N) and resistant strain Reichswald
Evaluation: Mortality was evaluated cumulatively at different times. […]
Test Insects: Culex quinquefasciatus (adults) (3 minutes exposure time according to USDA Petri Dish Method), Musca domestica (adults), susceptible and resistant strain, Blattella germanica (males), Cimex lectularius (adults) (all: continuous exposure time)
Application: The EC formulation (diluted with water 1:9) were applied as 0.85 ml solutions onto glazed tiles (15 cm×15 cm)

[8] = Table 39, permethrin without adjuvant (Permanone 40)
[9] = Table 40, aqueous permethrin/adjuvant

In the case of CC1(C)C(C=C(Cl)Cl)C1C(=O)OCc1cccc(Oc2ccccc2)c1 (centres unmarked) [Permethrin (0.5%)], the “Average % Mortality after 10 min” value ([1]; 10 min) is reported as 40%, the “Average % Mortality after 20 min” value ([1]; 20 min) is reported as 87% and the “Average % Mortality after 40 min” value ([1]; 40 min) is reported as 93%. The “Average % Mortality after 60 min” value ([1]; 60 min) was 100%, the “Average % Mortality after 10 min” value ([2]; 10 min) was 13% and the “Average % Mortality after 20 min” value ([2]; 20 min) was 50%. For the same molecule, the “Average % Mortality after 30 min” value ([2]; 30 min) was 93%, the “Average % Mortality after 60 min” value ([2]; 60 min) was 100% and the “Average % Mortality after 10 min” value ([3]; 10 min) was 100%. For the same molecule, the “Average % Mortality after 20 min” value ([3]; 20 min) was 100%, the “Average % Mortality after 30 min” value ([3]; 30 min) was 100% and the “Average % Mortality after 4 hr” value ([3]; 4 hr) was 100%. For the same molecule, the “Average % Mortality after 5 min” value ([4]; 5 min) was 43%, the “Average % Mortality after 15 min” value ([4]; 15 min) was 100% and the “Average % Mortality after 30 min” value ([4]; 30 min) was 100%. For the same molecule, the “Average % Mortality after 60 min” value ([4]; 60 min) was 100%, the “Average % Mortality after 5 min” value ([5]; 5 min) was 58% and the “Average % Mortality after 10 min” value ([5]; 10 min) was 100%. For the same molecule, the “Average % Mortality after 15 min” value ([5]; 15 min) was 100%, the “Average % Mortality after 20 min” value ([5]; 20 min) was 100% and the “Average % Knockdown & Mortality after 3 min” value (Aedes aegypti mosquito; [8]) was 0%. For the same molecule, the “Average % Knockdown & Mortality after 3 min” value (Aedes aegypti mosquito; [9]) was 0%, the “Average % Knockdown & Mortality after 9 min” value (Aedes aegypti mosquito; [8]) was 0% and the “Average % Knockdown & Mortality after 9 min” value (Aedes aegypti mosquito; [9]) was 1%. For the same molecule, the “Average % Knockdown & Mortality after 15 min” value (Aedes aegypti mosquito; [8]) was 0%, the “Average % Knockdown & Mortality after 15 min” value (Aedes aegypti mosquito; [9]) was 1% and the “Average % Knockdown & Mortality after 30 min” value (Aedes aegypti mosquito; [8]) was 0%. For the same molecule, the “Average % Knockdown & Mortality after 30 min” value (Aedes aegypti mosquito; [9]) was 0%, the “Average % Knockdown & Mortality after 60 min” value (Aedes aegypti mosquito; [8]) was 0% and the “Average % Knockdown & Mortality after 60 min” value (Aedes aegypti mosquito; [9]) was 0%. The “Average % Knockdown & Mortality after 24 hr” value (Aedes aegypti mosquito; [8]) was 9% and the “Average % Knockdown & Mortality after 24 hr” value (Aedes aegypti mosquito; [9]) was 6%.

CC1(C)[C@H](C(=O)O[C@H](C#N)c2cccc(Oc3ccccc3)c2)[C@@H]1C=C(Br)Br [0.020% DTM] was tested, and the “% Mortality after” value ([6]; 2 h) was 0%, the “% Mortality after” value ([6]; 24 h) was 7% and the “% Mortality after” value ([7]; 15′) was 0%. For the same molecule, the “% Mortality after” value ([7]; 30′) was 0%, the “% Mortality after” value ([7]; 1 h) was 0% and the “% Mortality after” value ([7]; 3 h) was 0%.
